Reference: patent publication US20030027218A1, “PEPTIDES PROMOTING THE ACTIVATION OF LATENT TGF-BETA AND METHOD FOR SCREENING TGF-BETA ACTIVITY REGULATORS” (priority 1997, published 2003)
Blank lines part the entries; values can stand above or below the substance they belong to. Positions of bridges follow the written chain, without caps; N, C: chain ends. *: point of attachment. Biotin = O=C1N[C@H]2[C@H](CS[C@H]2CCCCC(=O)*)N1

How the values were obtained:
[1] = system: bovine capillary endothelial cells (BCEC); test: Degree of binding of 125I-LLTGF-β to bovine capillary endothelial cells (radioactivity); type: cell-based; conditions: for Radioactivity (cpm), n = 4: BCEC, 2 ng/ml 125I-LLTGF-β, 4° C. 3 hours
Protocol: LLTGF-β isolated and purified from human platelets by the method of Okada, et al. [Journal of Biochemistry, 106, 304 (1989)] was ^125I-labeled according to the chloramine T method [Molecular & Cellular Biology, 2, 599 (1982)] in the following manner.
To 2 μg of LLTGF-β were added 25 μl of 1 M K-phosphate buffer (pH 7.5), 37 MBq of Na-^125I (DuPont NEN) and 10 μl of chloramine-T (0.5 mg/100 μl in 0.05 MK-phos. buffer, Wako Pure Chemical Industries, Ltd.), followed by stirring at room temperature for 40 seconds. After 15 μl of Na2S2O5 (1 mg/100 μl in 0.05 M K-phos. buffer) was added, the mixture was stirred at room temperature for 5 seconds, followed by addition of 100 μl of an aqueous solution of tyrosine (1 mg/ml). The reaction mixture was applied to a Sephadex G25 column and the eluate was taken in 500 μl fractions. Each fraction was subjected to measurement of radioactivity using a γ-counter (ARC-2000, Aloka Co., Ltd.). The fractions containing labeled protein were selected for use in the experiment.
The cells to be used in the experiment were obtained according to the method of Sato, et al. [Journal of Cell Biology, 123, 1249 (1993)]. Bovine vascular smooth muscle cells (BSMC) and porcine vascular smooth muscle cells (PSMC) were isolated from bovine aorta and porcine aorta, respectively, and cultured by the explant method [Journal of Cell Biology, 50, 172 (1971)]. Bovine capillary endothelial cells (BCEC) were isolated from bovine adrenal capillary and cultured. Bovine aortic endothelial cells (BAEC) were isolated from bovine aortic and cultured.
The following procedure was carried out according to the method of Sato, et al. [Journal of Cell Biology, 123, 1249 (1993)].
BSMC, PSMC and BCEC isolated and cultured in the above-described manner were respectively put into 35 mm dishes in an amount of 4×10^4 cells/dish. On the next day, the medium was replaced by Dulbecco's Modified Eagle's Medium (DMEM, Nissui Pharmaceutical Co.) containing 0.1% bovine serum albumin (BSA), followed by incubation for 5 hours. After the cells were washed with 2 ml of phosphate-buffered saline containing 0.1 g/l each of MgCl2.6H2O and CaCl2 [hereinafter sometimes referred to as PBS(+); phosphate-buffered saline containing neither MgCl2.6H2O nor CaCl2 is referred to as PBS (−)], the medium was replaced by 1 ml of ice-cold DMEM containing 0.1% BSA, 2 ng/ml ^125I-LLTGF-β and a test compound, followed by incubation at 4° C. for 3 hours. […] After being washed three times with 2 ml of ice-cold PBS(+), the cells were lysed with 900 μl of 0.5% Triton X-100 (room temperature, 0.5-1 hour), and 800 μl of the lysate was subjected to measurement of radioactivity using a γ-counter.

[2] = system: bovine capillary endothelial cells (BCEC); test: Migration of bovine vascular endothelial cells (release of active TGF-β from latent TGF-β); type: cell-based; conditions: 24 hours, 10 /μg/ml
Protocol: The following procedure was carried out according to the method of Sato, et al. [Journal of Cell Biology, 123, 1249 (1993)]. were scraped with a razor, the remaining cells were washed with PBS (−), followed by incubation in DMEM containing 0.1% BSA and a test compound. After 24 hours, the number of the cells which migrated in four fileds of a microscope (IX70, Olympus) was counted for each dish. The test compound was added in the same manner as in Test Example 1. The migration of cells was inhibited and the release of active TGF-β from latent TGF-β was promoted by Compounds 3 and 5 to 9 at a concentration of 50 μg/ml.

[3] = system: active TGF-β; test: Determination of active TGF-β by luciferase assay (BCEC culture supernatant on MLEC carrying PAI-1 promoter luciferase); type: cell-based, bovine; conditions: BCEC incubated with test compound 24 hours
Protocol: The amount of active TGF-β was determined by measuring the luminescence of mink lung epithelial cells (MLEC) carrying the luciferase gene introduced downstream of the PAI-1 promoter by luciferase assay system (Promega) according to the method of Abe, et al. [Analytical Biochemistry, 216, 276 (1994)] as described below.
BCEC were cultured in a 24-well plate to make a confluent layer and then the medium was replaced by DMEM containing 0.1% BSA. After 6 hours, the cells were scraped reticulately with a comb and the remaining cells were washed with PBS (−) , followed by incubation in DMEM containing 0.1% BSA and a test compound for 24 hours. The resulting culture supernatant was taken as a sample. Six hours before the sampling of this culture supernatant, the above-mentioned MLEC were put into wells of a 96-well plate in an amount of 2.8×10^4 cells/well. After the cells were cultured in DMEM containing 10% fetal calf serum (FCS) for 6 hours, the medium was replaced by the above culture supernatant sample, followed by incubation for 16 hours. The cells were washed twice with PBS (−) and then subjected to measurement of active TGF-β concentration by lucuferase assay system.

[4] = system: bovine aortic endothelial cells (BAEC); test: Degree of binding of 125I-LLTGF-β to bovine aortic endothelial cells (radioactivity); type: cell-based; conditions: test compound 100 μg/ml
[5] = test compound 100 μg/ml, vehicle 416.8 ± 89.6
[6] = concentrations indicated in FIG. 6

Substance: H-Leu-Ser-Thr-Cys-Lys-Thr-Ile-Asp-Met-Glu-Leu-Val-Lys-Arg-Lys-Arg-OH (H-LSTCKTIDMELVKRKR-OH) [Compound 14]
Radioactivity (cpm), n = 4 [1, 5]: 3369.9 ± 166.8 cpm

Substance: H-cyclo(Cys-Val-Leu-Leu-Ser-Arg-Ala-Glu-Leu-Arg-Leu-Leu-Arg-Arg-Leu-Lys-Leu-Lys-Cys)-OH (H-CVLLSRAELRLLRRLKLKC-OH; disulfide 1-19; SMILES CC(C)C[C@@H]1NC(=O)[C@H](CCC(=O)O)NC(=O)[C@H](C)NC(=O)[C@H](CCCNC(=N)N)NC(=O)[C@H](CO)NC(=O)[C@H](CC(C)C)NC(=O)[C@H](CC(C)C)NC(=O)[C@H](C(C)C)NC(=O)[C@@H](N)CSSC[C@@H](C(=O)O)NC(=O)[C@H](CCCCN)NC(=O)[C@H](CC(C)C)NC(=O)[C@H](CCCCN)NC(=O)[C@H](CC(C)C)NC(=O)[C@H](CCCNC(=N)N)NC(=O)[C@H](CCCNC(=N)N)NC(=O)[C@H](CC(C)C)NC(=O)[C@H](CC(C)C)NC(=O)[C@H](CCCNC(=N)N)NC1=O) [Compound 12]
Radioactivity (cpm), n = 4 ([1]; test compound 30 μg/ml, vehicle 163.1 ± 28.3): 2739.9 ± 182.8 cpm | degree of binding of TGF-β to cells ([1]; concentration of 30 μg/ml, BCEC (Table 3)): increased

release of active TGF-β (luciferase assay) ([3]; concentration of 10 μg/ml): remarkable effect | release of active TGF-β (luciferase assay) [3, 6]: Active TGF-β was released
Substance: H-cyclo(Cys-Leu-Ser-Thr-Ser-Lys-Thr-Ile-Asp-Met-Glu-Leu-Val-Lys-Arg-Lys-Arg-Ile-Glu-Ala-Ile-Arg-Gly-Cys)-OH (H-CLSTSKTIDMELVKRKRIEAIRGC-OH; disulfide 1-24; SMILES CC[C@H](C)[C@@H]1NC(=O)[C@H](C)NC(=O)[C@H](CCC(=O)O)NC(=O)[C@H]([C@@H](C)CC)NC(=O)[C@H](CCCNC(=N)N)NC(=O)[C@H](CCCCN)NC(=O)[C@H](CCCNC(=N)N)NC(=O)[C@H](CCCCN)NC(=O)[C@H](C(C)C)NC(=O)[C@H](CC(C)C)NC(=O)[C@H](CCC(=O)O)NC(=O)[C@H](CCSC)NC(=O)[C@H](CC(=O)O)NC(=O)[C@H]([C@@H](C)CC)NC(=O)[C@H]([C@@H](C)O)NC(=O)[C@H](CCCCN)NC(=O)[C@H](CO)NC(=O)[C@H]([C@@H](C)O)NC(=O)[C@H](CO)NC(=O)[C@H](CC(C)C)NC(=O)[C@@H](N)CSSC[C@@H](C(=O)O)NC(=O)CNC(=O)[C@H](CCCNC(=N)N)NC1=O) [Compound 10]
migration inhibitory effect [2]: showed the migration inhibitory effect

Substance: Biotinyl-cyclo(Cys-Val-Leu-Leu-Ser-Arg-Ala-Glu-Leu-Arg-Leu-Leu-Arg-Arg-Leu-Lys-Leu-Lys-Cys)-OH (Biotin-CVLLSRAELRLLRRLKLKC-OH; disulfide 1-19; SMILES CC(C)C[C@@H]1NC(=O)[C@H](CCC(=O)O)NC(=O)[C@H](C)NC(=O)[C@H](CCCNC(=N)N)NC(=O)[C@H](CO)NC(=O)[C@H](CC(C)C)NC(=O)[C@H](CC(C)C)NC(=O)[C@H](C(C)C)NC(=O)[C@@H](NC(=O)CCCC[C@@H]2SC[C@@H]3NC(=O)N[C@@H]32)CSSC[C@@H](C(=O)O)NC(=O)[C@H](CCCCN)NC(=O)[C@H](CC(C)C)NC(=O)[C@H](CCCCN)NC(=O)[C@H](CC(C)C)NC(=O)[C@H](CCCNC(=N)N)NC(=O)[C@H](CCCNC(=N)N)NC(=O)[C@H](CC(C)C)NC(=O)[C@H](CC(C)C)NC(=O)[C@H](CCCNC(=N)N)NC1=O) [Compound 13]
Radioactivity (cpm), n = 4 ([4]; Table 5, vehicle 1076.5 ± 12.0): 4704.0 ± 939.9 cpm

Substance: H-Leu-Ser-Thr-Ser-Lys-Thr-Ile-Asp-Met-Glu-Leu-Val-Lys-Arg-Lys-Arg-Ile-Glu-Ala-Ile-Arg-Gly-Cys-OH (H-LSTSKTIDMELVKRKRIEAIRGC-OH) [Compound 3]
release of active TGF-β (luciferase assay) [3, 6]: Active TGF-β was released

Substance: H-Leu-Lys-Leu-Lys-Val-Glu-Gln-His-Val-Glu-Leu-Tyr-Gln-Lys-Tyr-Ser-Asn-Asn-Ser-Trp-Arg-OH (H-LKLKVEQHVELYQKYSNNSWR-OH) [Compound 15]
Radioactivity (cpm), n = 4 [1, 5]: 5621.1 ± 889.2 cpm

Substance: Biotinyl-Gly-Arg-Arg-Leu-Lys-Leu-Lys-Val-Glu-Gln-His-Val-Glu-Leu-Tyr-Gln-Lys-Tyr-Ser-Asn-Asn-Ser-Trp-Arg-OH (Biotin-GRRLKLKVEQHVELYQKYSNNSWR-OH; SMILES CC(C)C[C@H](NC(=O)[C@H](CCCNC(=N)N)NC(=O)[C@H](CCCNC(=N)N)NC(=O)CNC(=O)CCCC[C@@H]1SC[C@@H]2NC(=O)N[C@@H]21)C(=O)N[C@@H](CCCCN)C(=O)N[C@@H](CC(C)C)C(=O)N[C@@H](CCCCN)C(=O)N[C@H](C(=O)N[C@@H](CCC(=O)O)C(=O)N[C@@H](CCC(N)=O)C(=O)N[C@@H](Cc1c[nH]cn1)C(=O)N[C@H](C(=O)N[C@@H](CCC(=O)O)C(=O)N[C@@H](CC(C)C)C(=O)N[C@@H](Cc1ccc(O)cc1)C(=O)N[C@@H](CCC(N)=O)C(=O)N[C@@H](CCCCN)C(=O)N[C@@H](Cc1ccc(O)cc1)C(=O)N[C@@H](CO)C(=O)N[C@@H](CC(N)=O)C(=O)N[C@@H](CC(N)=O)C(=O)N[C@@H](CO)C(=O)N[C@@H](Cc1c[nH]c2ccccc12)C(=O)N[C@@H](CCCNC(=N)N)C(=O)O)C(C)C)C(C)C) [Compound 16]
Radioactivity (cpm), n = 4 ([4]; Table 6, vehicle 792.0 ± 107.0): 10495.0 ± 803.0 cpm
